Structures are written as SMILES. Active and inactive are the calls of the source. The calls are words filed in the database; no cut-off is given here.

The test system of the assay is Escherichia coli. As to the kind of experiment: Antibacterial activity against Escherichia coli JM109 at 1 mg/mL. In kind it is functional, organism-based.
`CCCCCCCCc1cn([C@@H]2O[C@H](CO)[C@@H](O)[C@@H]2O)nn1`: the result was inactive.
For `CCCCCCCCCCc1cn([C@@H]2O[C@H](CO)[C@@H](O)[C@@H]2O)nn1` the value was “inactive”; for `CCCCCCc1cn([C@@H]2O[C@H](CO)[C@@H](O)[C@@H]2O)nn1`, “inactive”.
For `CC(C)=CCC/C(C)=C/CC/C(C)=C/COCc1cn([C@@H]2O[C@H](CO)[C@@H](O)[C@@H]2O)nn1`, the result was inactive.
Regarding `OC[C@H]1O[C@@H](n2cc(-c3ccccc3)nn2)[C@@H](O)[C@@H]1O`, the outcome was inactive.
With `CCCCCCCCCCCCCCOCc1cn([C@@H]2O[C@H](CO)[C@@H](O)[C@@H]2O)nn1`, the result was inactive.

The values are drawn from ChEMBL document CHEMBL1152256, “Synthesis of Arabino glycosyl triazoles as potential inhibitors of mycobacterial cell wall biosynthesis” (2008).
